Test results taken from ChEMBL document CHEMBL1201862, “PubChem BioAssay data set” (2004).
The source made the active and inactive calls.

Assays:
[1] = target: Voltage-gated inwardly rectifying potassium channel KCNH2 (Homo sapiens, UniProt Q12809); details: Potency;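 also: confirmatory quantitative high-throughput screen measuring inhibition of hERG channel activity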
Kallikrein-7 = Kallikrein-7 (Homo sapiens, UniProt P49862); assay: Fluorescence Intensity-based biochemical primary high throughput dose response assay to identify activators of kallikrein-7 (K7) zymogen.
HEK293 [2] = assay: cells; details: Homo sapiens
[3] = target: T1, RNA-binding protein pos-1 (Caenorhabditis elegans, UniProt G5EF15); assay: disruptors of C. elegans POS-1 RNA interaction – biochemical, fluorescence polarization, dose response (AID 1964);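 also: purified POS-1 fused to maltose binding protein made in E. coli; potency of compounds blocking POS-1 binding to fluorescent RNA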
T1 sequence (G5EF15 whole entry): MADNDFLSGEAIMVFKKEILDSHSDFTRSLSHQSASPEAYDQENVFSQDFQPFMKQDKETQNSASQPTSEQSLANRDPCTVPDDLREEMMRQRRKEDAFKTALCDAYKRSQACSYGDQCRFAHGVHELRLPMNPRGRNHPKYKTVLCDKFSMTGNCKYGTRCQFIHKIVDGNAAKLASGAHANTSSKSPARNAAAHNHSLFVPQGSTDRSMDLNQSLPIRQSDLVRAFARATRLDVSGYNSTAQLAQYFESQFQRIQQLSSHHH

CHO = CHO cell viability loss, potency – luminescence, cytotoxicity control for TLR9-MyD88 binding inhibitor project, dose response (AID 588339); assay type: functional, cell-based, hamster; details: Cricetulus griseus;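 also: CHO cells stably coexpressing TLR9 and MyD88 fusions from primary screen; compound exposure lasted 48 hours before viability readout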
[4] = target: T2, Zinc finger protein mex-5 (Caenorhabditis elegans, UniProt Q9XUB2); assay: potency of MEX-5 RNA-binding blockers – biochemical, C. elegans, fluorescence polarization, dose response (AID 1960)
T2 sequence (Q9XUB2 whole entry): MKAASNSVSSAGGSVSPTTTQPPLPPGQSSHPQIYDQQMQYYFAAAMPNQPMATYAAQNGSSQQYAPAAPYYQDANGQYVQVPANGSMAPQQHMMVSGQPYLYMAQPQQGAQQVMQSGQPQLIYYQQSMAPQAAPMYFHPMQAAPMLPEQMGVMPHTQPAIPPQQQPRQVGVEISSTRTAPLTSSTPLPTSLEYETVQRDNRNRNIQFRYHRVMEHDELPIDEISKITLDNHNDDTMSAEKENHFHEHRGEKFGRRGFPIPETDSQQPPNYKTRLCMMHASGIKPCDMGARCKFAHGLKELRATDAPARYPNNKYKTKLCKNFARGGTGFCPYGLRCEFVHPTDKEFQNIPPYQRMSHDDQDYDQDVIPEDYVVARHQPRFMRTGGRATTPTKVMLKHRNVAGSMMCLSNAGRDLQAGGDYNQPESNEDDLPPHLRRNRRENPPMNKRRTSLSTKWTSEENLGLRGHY

HEK293 [5] = assay: cells; details: Homo sapiens; remark: listed apart in the source
[6] = HEK-293T viability loss after treatment – luminescence, T-cell screen hits, cytotoxicity control for TCR NF-kB inhibitor project, dose response (AID 489026); assay type: functional, cell-based;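 also: cells exposed to compound about 14 hours before the viability readout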
[7] = Vero E6 cell cytotoxicity, dose response, cytotoxicity control for non-replicating M. tuberculosis project, secondary assay (AID 492998); assay type: functional, VeroE6; details: Vero C1008
[8] = THP-1 cell cytotoxicity, dose response, cytotoxicity control for non-replicating M. tuberculosis project (AID 489025); assay type: functional
cells = assay type: functional
[9] = HepG2 cell cytotoxicity, dose response, cytotoxicity control for non-replicating M. tuberculosis project (AID 489018); assay type: functional; details: Mycobacterium tuberculosis
[10] = target: T3, Heat shock factor protein 1 (Mus musculus, UniProt P38532); assay: enhancement of HSF1-driven luciferase signal – cell-based, NIH3T3, luminescence, dose retest, confirmation (AID 435004); assay type: functional;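 also: stress induced by proteasome inhibitor MG132 added 30 min after compound; luciferase reporter driven by HSF1 response element in NIH3T3 cells; actives raise luminescence as potentiators of the MG132 stress response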
T3 sequence (P38532 whole entry): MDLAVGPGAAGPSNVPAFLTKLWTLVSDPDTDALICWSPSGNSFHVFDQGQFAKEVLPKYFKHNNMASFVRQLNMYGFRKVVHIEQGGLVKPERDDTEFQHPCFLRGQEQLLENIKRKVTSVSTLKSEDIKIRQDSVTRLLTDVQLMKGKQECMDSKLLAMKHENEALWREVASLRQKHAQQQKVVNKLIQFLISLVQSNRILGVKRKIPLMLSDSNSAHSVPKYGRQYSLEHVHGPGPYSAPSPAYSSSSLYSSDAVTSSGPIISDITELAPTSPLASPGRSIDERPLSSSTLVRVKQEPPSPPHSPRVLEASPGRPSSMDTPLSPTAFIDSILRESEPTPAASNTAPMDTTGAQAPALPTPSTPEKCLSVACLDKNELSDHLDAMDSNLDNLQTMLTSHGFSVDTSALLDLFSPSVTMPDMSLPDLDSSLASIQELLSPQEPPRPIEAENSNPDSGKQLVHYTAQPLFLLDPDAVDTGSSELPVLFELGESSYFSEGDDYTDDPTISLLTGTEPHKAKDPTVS

Kallikrein-7, sequence (P49862 whole entry): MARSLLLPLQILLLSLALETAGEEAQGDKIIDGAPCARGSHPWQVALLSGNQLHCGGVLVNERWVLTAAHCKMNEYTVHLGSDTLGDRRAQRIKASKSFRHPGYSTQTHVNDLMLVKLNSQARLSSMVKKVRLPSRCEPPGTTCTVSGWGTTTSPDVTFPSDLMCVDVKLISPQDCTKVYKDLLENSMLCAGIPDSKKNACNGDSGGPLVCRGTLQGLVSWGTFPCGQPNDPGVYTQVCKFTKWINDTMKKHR
Voltage-gated inwardly rectifying potassium channel KCNH2, sequence (Q12809 whole entry): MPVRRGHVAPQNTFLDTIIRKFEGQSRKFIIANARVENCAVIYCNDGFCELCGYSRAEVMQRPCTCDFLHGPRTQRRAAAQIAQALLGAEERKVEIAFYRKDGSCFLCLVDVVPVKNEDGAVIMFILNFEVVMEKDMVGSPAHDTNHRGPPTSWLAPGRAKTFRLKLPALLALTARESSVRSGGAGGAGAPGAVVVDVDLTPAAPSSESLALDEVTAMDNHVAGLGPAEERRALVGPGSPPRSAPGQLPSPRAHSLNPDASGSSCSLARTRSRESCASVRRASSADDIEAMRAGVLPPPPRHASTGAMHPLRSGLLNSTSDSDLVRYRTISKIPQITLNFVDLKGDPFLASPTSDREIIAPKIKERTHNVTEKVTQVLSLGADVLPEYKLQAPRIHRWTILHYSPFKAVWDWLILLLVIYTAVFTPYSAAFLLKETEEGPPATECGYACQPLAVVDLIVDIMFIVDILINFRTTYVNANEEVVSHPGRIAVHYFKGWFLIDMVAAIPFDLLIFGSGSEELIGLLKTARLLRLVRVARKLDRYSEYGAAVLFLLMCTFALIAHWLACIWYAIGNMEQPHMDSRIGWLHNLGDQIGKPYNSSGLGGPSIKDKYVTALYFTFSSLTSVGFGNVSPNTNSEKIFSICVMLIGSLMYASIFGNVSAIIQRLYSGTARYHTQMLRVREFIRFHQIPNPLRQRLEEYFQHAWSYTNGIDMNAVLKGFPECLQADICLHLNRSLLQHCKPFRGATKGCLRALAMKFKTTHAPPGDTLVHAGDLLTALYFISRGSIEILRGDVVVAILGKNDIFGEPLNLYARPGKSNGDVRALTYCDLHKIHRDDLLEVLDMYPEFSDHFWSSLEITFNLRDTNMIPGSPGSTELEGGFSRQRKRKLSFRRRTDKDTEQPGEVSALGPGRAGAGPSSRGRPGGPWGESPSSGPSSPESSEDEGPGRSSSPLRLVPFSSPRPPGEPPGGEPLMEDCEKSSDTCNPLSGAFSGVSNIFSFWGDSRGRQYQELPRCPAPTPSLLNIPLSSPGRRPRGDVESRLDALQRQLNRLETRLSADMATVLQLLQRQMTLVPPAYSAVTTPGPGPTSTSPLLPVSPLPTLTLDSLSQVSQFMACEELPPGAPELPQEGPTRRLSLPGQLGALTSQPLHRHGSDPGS

## COc1ccc(NC(=O)/C=C/c2ccc(Cl)cc2)cc1
[1]
  AC50: 25.1 µM (inconclusive)

## Oc1nc(-c2ccccc2Cl)c2cc(F)ccc2n1
Kallikrein-7
  EC50: > 69.5 µM (inactive)

## Nc1ccc2nc(-c3ccccc3)c(-c3ccccc3)nc2c1
HEK293 [2]
  EC50: > 59.6 µM (inactive)
[3]
  EC50: 23.9 µM (inconclusive)
CHO
  IC50: > 49.7 µM (inactive)
[4]
  EC50: 24.9 µM (active)
HEK293 [5]
  EC50: > 59.6 µM (inactive)

## Cc1ccc(O)c(NC(=O)c2cc(-c3ccccc3)on2)c1
[6]
  IC50: > 80 µM (inactive)

## COc1ccc(C(CCNCc2ccccc2)c2ccc(F)cc2)cc1 (stereo unspecified)
[7]
  CC50: 18 µM (active)
[8]
  CC50: 11.7 µM (active)
cells
  IC50: 18.7 µM (active)
[9]
  CC50: 14.6 µM (active)
[10]
  EC50: > 260 µM (inactive)

## Cc1c(C2(O)CCCCC2)[nH]c2cnccc12
Kallikrein-7
  EC50: > 69.5 µM (inactive)

## Nc1c(Cl)cc(Cl)cc1C(=O)OCC(=O)N1CCCC1
Kallikrein-7
  EC50: > 69.5 µM (inactive)

## CCOC(=O)N1CCC2(CC1)NC(=O)c1ccccc1N2
Kallikrein-7
  EC50: > 69.5 µM (inactive)
